Assay results reported in the NIST ThermoML archive (doi:10.1021/je034177v).

Assay: molar heat capacity at constant pressure; xn = mol fraction of the nth substance listed
Conditions: 101 kPa, Liquid, Small sample (50 mg) DSC

ClCCCCCCCl [1,6-dichlorohexane] + CCCCCCCCCCCC
molar heat capacity at constant pressure [J/K/mol]
Conditions | 283.15 K | 288.15 K | 293.15 K | 298.15 K | 303.15 K | 308.15 K | 313.15 K | 318.15 K | 323.15 K
x1 = 0.0498 | 361.24 | 363.25 | 365.49 | 367.75 | 370.17 | 372.73 | 375.36 | 378.07 | 380.85
x1 = 0.1003 | 354.21 | 356.2 | 358.37 | 360.64 | 363.07 | 365.53 | 368.13 | 370.69 | 373.37
x1 = 0.1497 | 347.4 | 349.35 | 351.58 | 353.74 | 356.06 | 358.52 | 361.02 | 363.62 | 366.28
x1 = 0.2527 | 333.57 | 335.52 | 337.63 | 339.74 | 341.93 | 344.27 | 346.63 | 349.13 | 351.62
x1 = 0.4017 | 314.16 | 315.92 | 317.89 | 319.79 | 321.84 | 323.95 | 326.16 | 328.4 | 330.71
x1 = 0.502 | 301.12 | 302.83 | 304.61 | 306.46 | 308.39 | 310.38 | 312.43 | 314.57 | 316.72
x1 = 0.6 | 288.34 | 289.93 | 291.62 | 293.38 | 295.19 | 297.07 | 299.01 | 300.97 | 303.01
x1 = 0.7011 | 275.07 | 276.6 | 278.22 | 279.86 | 281.55 | 283.34 | 285.15 | 287 | 288.89
x1 = 0.7986 | 262.36 | 263.83 | 265.4 | 266.9 | 268.5 | 270.16 | 271.87 | 273.6 | 275.38
x1 = 0.8998 | 249.37 | 250.76 | 252.22 | 253.67 | 255.12 | 256.63 | 258.18 | 259.77 | 261.42
x1 = 0.9493 | 242.86 | 244.24 | 245.67 | 247.09 | 248.51 | 249.99 | 251.5 | 253.03 | 254.57
x1 = 0.9691 | 240.39 | 241.75 | 243.14 | 244.52 | 245.9 | 247.38 | 248.85 | 250.37 | 251.9
x1 = 1 | 236.59 | 237.9 | 239.26 | 240.6 | 241.94 | 243.37 | 244.81 | 246.28 | 247.76
